For the series, the target named is FUS. Nature of the series: mouse, dose not given. Particulars: ASO.

HELM strings list units from the 5' end as sugar, base in round brackets, then linkage (d deoxyribose, r ribose, m 2'-O-methyl, p phosphodiester). Strings are as the collection lists them; they lack the last nucleoside at the 3' end of the tested compound. [moe] = 2'-O-(2-methoxyethyl) (MOE); [sp] = phosphorothioate linkage; [m5C] = 5-methylcytosine

For “RNA1{[moe](G)[sp].[moe](T)p.[moe]([m5C])p.[moe](A)p.[moe](G)p.d(G)[sp].d(T)[sp].d(T)[sp].d(A)[sp].d(A)[sp].d([m5C])[sp].d([m5C])[sp].d(A)[sp].d(T)[sp].d(T)[sp].[moe](A)p.[moe]([m5C])p.[moe]([m5C])[sp].[moe](A)}$$$$ (last 3' nucleoside missing)”, the 3 h FOB score came out at 2.5 score 0-7.

Source of the values: the OligoGym collection.
